The source of these data is article PMC4116524, “A virtual screen identified C96 as a novel inhibitor of phosphatidylinositol 3-kinase that displays potent preclinical activity against multiple myeloma in vitro and in vivo” (Oncotarget, 2014).

What all share (format): cell-based
In assay [1] the test system is IGF-1R phosphorylation in LP1 and JJN3 cells. As to the kind of experiment: IGF-1-induced IGF-1R phosphorylation, immunoblotting. The note with it: 100 μM, 2 hrs, IGF-1 15 min. How it is done:
(§1) To elucidate this specificity, we first evaluated its effects on IGF-1R because IGF-1R as a receptor tyrosine kinase activates PI3K in the presence of IGF-1. To exclude the potential effects of C96 on IGF-1 signaling, LP1 and JJN3 cells were starved overnight followed by C96 or S14161 treatment for 2 hrs, and IGF-1 stimulation for 15 min. As expected, IGF-1 triggered AKT phosphorylation but it was suppressed by both C96 and the proven PI3K inhibitor S14161 without affecting total AKT expression (Figure 3A). […] Next, we evaluated other kinases including non-receptor kinase c-Src and a PI3K parallel kinase ERK which transduces external cellular signals. Both LP1 and JJN3 cells were treated with C96 at increasing concentrations that inhibited AKT and mTOR activation (Figure 2C).
(§2) Figure 3 C96 inhibits AKT but not IGF-1R, ERK or c-Src kinase activation (A) LP1 and JJN3 cells were starved overnight, then treated with 100 (μM of C96 or S14161 for 2 hrs, followed by IGF-1 (100 ng/mL) for 15 min. After incubation, cells were harvested and the expression of p-AKT, p-IGF-1R, total AKT (T-AKT), and IGF-1R proteins were detected by immunoblotting. (B) LP1 and JJN3 were treated with C96 at indicated concentrations for 24 hrs followed by immunoblotting assay for the expression of p-Src, c-Src, p-ERK, and ERK. GAPDH was used as a loading control. […]
For orientation: In western blotting, separated proteins are transferred to a membrane and probed.

In the next assay the test system is LP1, OPM2 and JJN3 cells. As to the kind of experiment: MM cell growth after starvation/IGF-1 stimulation (MTT). The note with it: 0.5% FBS 12 hrs, IGF-1 100 ng/mL, 24 hrs. An excerpt:
Next, we evaluated the effects of C96 on MM cell growth by measuring viable cells after starvation/IGF-1 stimulation in the presence of C96. As shown in Supplemental Figure 2A, IGF-1 stimulated MM cell growth, but it was suppressed by C96. We also examined the effects of C96 on MM cell migration upon IGF-1 stimulation.
MM cells were dispensed in 96-well plates at a density of 8×10^3 cells per well and treated with increasing concentrations of C96 for 72 hrs, and the growth inhibitory effect of C96 on MM cells was assessed by an MTT assay as reported previously. To show the effect of C96 on cell growth in the presence of growth factor IGF-1, MM cells were first maintained in IMDM media containing 0.5% FBS for 12 hrs, followed by C96 treatment alone or in combination with 100 ng/mL of IGF-1. Cells were then incubated for another 24 hrs, relative cell proliferation was analyzed by an MTT assay.
Supplementary Figure S2: C96 inhibits MM cell proliferation and migration in the presence of IGF-1. […] Cells were then incubated for another 24 hr, cell number was analyzed using MTT staining. […] Cells were loaded onto the upper chamber of a transwell, and the lower chamber was filled with IMDM containing agonist IGF-1.After 6 hrs, cells migrating into the lower chamber were counted using a hemacytometer. […]

Assay [2] has as its system AKT phosphorylation in LP1 and JJN3 cells. Put plainly: IGF-1-stimulated AKT phosphorylation, immunoblotting (Figure 3A). The note with it: 100 μM, 2 hrs, IGF-1 15 min. As to the method: as §1, §2
Assay [3] concerns ERK phosphorylation in LP1 and JJN3 cells. As to the kind of experiment: ERK phosphorylation, immunoblotting. The note with it: increasing concentrations, 24 hrs. How it is done: as §1, §2

As for `O=C1NC(=O)C(=CC=Cc2cccs2)C(=O)N1` [C96, 5-(3-(2-thienyl)-2-propen-1-ylidene)-2,4,6(1H,3H,5H)-pyrimidinetrione], the “IGF-1R phosphorylation induced by IGF-1” value in assay [1] is “not affected”. Further, the “IGF-1 stimulated MM cell growth” value with LP1, OPM2 and JJN3 cells is “suppressed”. Further, the “AKT phosphorylation triggered by IGF-1” value in assay [2] is “suppressed”. In addition, the “phosphorylation level of ERK” value in assay [3] is on record as “did not decrease”.
